Here are results for five compounds from US11504370B2, “Treatment of brain cancer” (Array BioPharma Inc., priority 2012, dated 2022).

A short description of series [1]: Brain pharmacokinetic (PK) study in mice. The series is classed as in vivo. The conditions noted are these: for Kp at 1 h / Kp at 2 h / Kp at 4 h / concentration at 1 h / concentration at 2 h / concentration at 4 h / concentration at 0.5 h / Kp at 0.5 h: mouse; for Kp at 1 h / Kp at 2 h / Kp at 4 h / Kp at 0.5 h: brain / plasma, ARRY-380 75 mg/kg, read-out: brain:plasma ratio. The protocol:
The mice were separated into groups and their PK was studied at 4 time points (0.5, 1, 2 and 4 hours, 4 mice per group per timepoint). The animals were euthanized by CO2 inhalation at the time points. Whole blood was drawn (300 μL) by cardiac puncture and […] eppendorf tube containing ethylenediaminetetraacetic acid (“EDTA”) ([…]). The samples were centrifuged, and the plasma was decanted and frozen at -20° C. until delivered to analytical chemistry. The brains were collected. The animals were perfused with 5-10 mL of saline, and the brains were removed, weighed and placed into a fast prep tube for DMPK analysis.

Series [2] deals with NCI-N87 gastric carcinoma cells. The series is described as follows: Inhibition of NCI-N87 gastric carcinoma xenograft growth in mice implanted intracranially. The class given is in vivo. Particulars: 75 mg/kg PO BID; intracranial NCI-N87, nude BALB/c mice; FIG. 3. The protocol: Anesthetized nude BALB/c female mice (Taconic Laboritories Inc., Germantown, N.Y.) were inoculated with human tumor cells (NCI-N87 gastric carcinoma cells, NCI, Bethesda, Md.) intracranially at lamba suture. 5×10^5 cells in saline were implanted via intracranial injection. The mice were separated into three groups (N=12); vehicle (acidified 30% Captisol®, pH about 4.5), 50 mg/kg lapatanib PO BID (30% Captisol®), and 75 mg/kg N4-(4-([1,2,4]triazolo[1,5-a]pyridin-7-yloxy)-3-methylphenyl)-N6-(4,4-dimethyl-4,5-dihydrooxazol-2-yl)quinazoline-4,6-diamine PO BID (acidified 30% Captisol®, pH about 4.5). Dosing began two days after implantation. The dose may have been reduced as necessary if drug-related weight loss (approximately 5%) was observed. The mice were monitored twice daily for general health and behavioral/neurological effects, and body weights (BW) were determined twice weekly. At first sign of neurological problem or body weight loss of greater than 20%, the mice were euthanized by CO2 inhalation. Brain and plasma were collected for analyses.

The test system is the same in series [3]. The series is described as follows: Anti-tumor efficacy on N87 human gastric cancer in murine xenograft model (subcutaneous). The class given is in vivo, mice. Particulars: subcutaneous NCI-N87, N=8. The protocol:
Nude nu/nu female mice (NCI, Bethesda, Md.) were split into five groups (N=8). Tumor cells (NCI-N87 gastric carcinoma cells, NCI, Bethesda, Md. 1×10^7) were implanted into the mice via subcutaneous injection (100 μL) directly on the right flank. To ensure good tumor take, the cells should be greater than 90% viable (thus, the intitial cell suspension of 1×10^7 cells/mL were injected for 1×10^6 cells injected/100 The tumors were allowed to grow to 150±50 mm^3. The tumor size was measured, and the mice were weighed. The mice were administered vehicle (30% Captisol®, 150 g in 500 mL DI water, PO, BID), lapatanib (50 mg/kg, PO, BID, 30% Captisol®), lapatanib (100 mg/kg, PO, BID, 30% Captisol®), N4-(4-([1,2,4]triazolo[1,5-a]pyridin-7-yloxy)-3-methylphenyl)-N6-(4,4-dimethyl-4,5-dihydrooxazol-2-yl)quinazoline-4,6-diamine (50 mg/kg, PO, QD, 30% Captisol) and N4-(4-([1,2,4]triazolo[1,5-a]pyridin-7-yloxy)-3-methylphenyl)-N6-(4,4-dimethyl-4,5-dihydrooxazol-2-yl)quinazoline-4,6-diamine (100 mg/kg, PO, QD, 30% Captisol). The tumor volume was measured. The number of partial responses in the mice was as follows: lapatanib (50 mg/kg) 0, lapatanib (100 mg/kg) 1, ARRY-380 (50 mg/kg) 1, ARRY-380 (100 mg/kg) 4.
Background: In xenograft studies the graft and the host belong to different species.

Series [4] in a line: Dissolution testing at pH 6.5 in phosphate buffer. The class given is physicochemical. The conditions noted are these: pH 6.5 phosphate buffer, 37° C., about 240 minutes. The protocol:
Dissolution testing was performed at a pH of 6.5 in phosphate buffer. […] The solid dispersion was suspended in H2O and added directly to the buffer solution at 37° C. […]

A short description of series [5]: Physicochemical analysis: hygroscopicity.
Where [6] appears, read: female, nude BALB/c, 1 hour, single PO dose, lapatanib 50 mg/kg.
Where [7] appears, read: female, nude BALB/c, 2 hour, single PO dose, lapatanib 50 mg/kg.
Where [8] appears, read: female, nude BALB/c, 4 hour, single PO dose, lapatanib 50 mg/kg.
The mark [9] stands for this setting: female, nude BALB/c, 1 hour, single PO dose, lapatanib 50 mg/kg, ARRY-380 75 mg/kg (AR00440993 = metabolite), perfused brain, read-out: Average Brain Concentration.
The mark [10] stands for this setting: female, nude BALB/c, 2 hour, single PO dose, lapatanib 50 mg/kg, ARRY-380 75 mg/kg (AR00440993 = metabolite), perfused brain, read-out: Average Brain Concentration.
The mark [11] stands for this setting: female, nude BALB/c, 4 hour, single PO dose, lapatanib 50 mg/kg, ARRY-380 75 mg/kg (AR00440993 = metabolite), perfused brain, read-out: Average Brain Concentration.
Setting [12] is: 0.5 hour, single PO dose, lapatanib 50 mg/kg, ARRY-380 75 mg/kg (AR00440993 = metabolite of ARRY-380), nude female BALB/c mice.
Setting [13] is: 1 hour, single PO dose, lapatanib 50 mg/kg, ARRY-380 75 mg/kg (AR00440993 = metabolite of ARRY-380), nude female BALB/c mice.
Where [14] appears, read: 2 hour, single PO dose, lapatanib 50 mg/kg, ARRY-380 75 mg/kg (AR00440993 = metabolite of ARRY-380), nude female BALB/c mice.
[15] abbreviates: 4 hour, single PO dose, lapatanib 50 mg/kg, ARRY-380 75 mg/kg (AR00440993 = metabolite of ARRY-380), nude female BALB/c mice.
[16] abbreviates: female, nude BALB/c, 0.5 hour, single PO dose, lapatanib 50 mg/kg.
Where [17] appears, read: female, nude BALB/c, 0.5 hour, single PO dose, lapatanib 50 mg/kg, ARRY-380 75 mg/kg (AR00440993 = metabolite), perfused brain, read-out: Average Brain Concentration.
The mark [18] stands for this setting: 50 mg/kg PO (lapatanib BID, ARRY-380 QD).
Setting [19] is: 100 mg/kg PO (lapatanib BID, ARRY-380 QD).

Like-named read-outs stand apart in the source and are kept apart here.

Turning to `Cc1cc(Nc2ncnc3ccc(NC4=NC(C)(CO)CO4)cc23)ccc1Oc1ccn2ncnc2c1` (centres unmarked) [AR00440993, (2-((4-((4-([1,2,4]triazolo[1,5-a]pyridin-7-yloxy)-3-methylphenyl)amino)quinazolin-6-yl)amino)-4-methyl-4,5-dihydrooxazol-4-yl)methanol], the “Average Brain Concentration” value in series [1] (0.5 hour, single PO dose, lapatanib 50 mg/kg, ARRY-380 75 mg/kg (AR00440993 = metabolite), perfused brain) was “BLQ”. In addition, in series [1] (compared with lapatanib or ARRY-380, mice, after PO ARRY-380), the brain penetration entry was “significantly higher”. For the same compound, the Kp at 1 h in series [1] (setting [6]) is 2.08. The Kp at 2 h in series [1] (setting [7]) worked out at 0.48. For the same compound, the Kp at 4 h in series [1] (setting [8]) is 1.31. Also, the concentration at 1 h was 28.9 ng/g in series [1] (setting [9]) and 67.3 µg/mL in series [1] (plasma, 1 hour, single PO dose, lapatanib 50 mg/kg, ARRY-380 75 mg/kg (AR00440993 = metabolite of ARRY-380), nude female BALB/c mice, read-out: Average Plasma Concentration). Also, the concentration at 2 h in series [1] (setting [10]) was determined as 35.8 ng/g; in series [1] (plasma, 2 hour, single PO dose, lapatanib 50 mg/kg, ARRY-380 75 mg/kg (AR00440993 = metabolite of ARRY-380), nude female BALB/c mice, read-out: Average Plasma Concentration) it was 134 µg/mL. For the same compound, the concentration at 4 h in series [1] (setting [11]) came to 40 ng/g; in series [1] (plasma, 4 hour, single PO dose, lapatanib 50 mg/kg, ARRY-380 75 mg/kg (AR00440993 = metabolite of ARRY-380), nude female BALB/c mice, read-out: Average Plasma Concentration), 70.4 µg/mL. Further, the concentration at 0.5 h in series [1] (plasma, 0.5 hour, single PO dose, lapatanib 50 mg/kg, ARRY-380 75 mg/kg (AR00440993 = metabolite of ARRY-380), nude female BALB/c mice, read-out: Average Plasma Concentration) stood at 20.2 µg/mL.

As to `Cc1cc(Nc2ncnc3ccc(NC4=NC(C)(C)CO4)cc23)ccc1Oc1ccn2ncnc2c1` [ARRY-380, N4-(4-([1,2,4]Triazolo[1,5-a]pyridin-7-yloxy)-3-methylphenyl)-N6-(4,4-dimethyl-4,5-dihydrooxazol-2-yl)quinazoline-4,6-diamine], the Average Plasma Concentration in series [1] (setting [12]) amounted to 3350 ng/mL; in series [1] (setting [13]), 6420 ng/mL; in series [1] (setting [14]) it was 6010 ng/mL; in series [1] (setting [15]), 2640 ng/mL. In addition, the Kp at 0.5 h in series [1] (setting [16]) turned out to be 0.048. Moreover, the Kp at 1 h in series [1] (setting [6]) came to 0.048. Besides, in series [1] (setting [7]), the Kp at 2 h was determined as 0.021. The Kp at 4 h in series [1] (setting [8]) was 0.019. In addition, the concentration at 0.5 h in series [1] (setting [17]) is 122 ng/g. Moreover, the concentration at 1 h in series [1] (setting [9]) was 116 ng/g. For the same compound, in series [1] (setting [10]), the concentration at 2 h turned out to be 134 ng/g. The concentration at 4 h in series [1] (setting [11]) was 42.1 ng/g. In addition, the “phospho-ErbB2/total ErbB2 in the brain” value in series [2] was “significantly decreases”. Further, the “number of partial responses in the mice” value is 1 in series [3] (setting [18]) and 4 in series [3] (setting [19]).

`CCO.Cc1cc(Nc2ncnc3ccc(NC4=NC(C)(C)CO4)cc23)ccc1Oc1ccn2ncnc2c1.Cc1cc(Nc2ncnc3ccc(NC4=NC(C)(C)CO4)cc23)ccc1Oc1ccn2ncnc2c1` [Example 21, N4-(4-([1,2,4]triazolo[1,5-a]pyridin-7-yloxy)-3-methylphenyl)-N6-(4,4-dimethyl-4,5-dihydrooxazol-2-yl)quinazoline-4,6-diamine freebase hemi-ethanolate]: in series [4], the “AUC for the free drug species” value stood at 5.49 µg·h/mL and the “Cmax for the free drug species” value was determined as 0.44 µg/mL.

With `CS(=O)(=O)CCNCc1ccc(-c2ccc3ncnc(Nc4ccc(OCc5cccc(F)c5)c(Cl)c4)c3c2)o1` [Lapatanib, lapatinib, reference compound], the Average Plasma Concentration in series [1] (setting [12]) stood at 1910 ng/mL; in series [1] (setting [13]) it was 4310 ng/mL; in series [1] (setting [14]), 1740 ng/mL; in series [1] (setting [15]) it was 1940 ng/mL. Besides, the Kp at 0.5 h in series [1] (setting [16]) came out at 0.026. For the same compound, in series [1] (setting [6]), the Kp at 1 h was 0.022. In addition, the Kp at 2 h in series [1] (setting [7]) is 0.039. Also, the Kp at 4 h in series [1] (setting [8]) was 0.038. In addition, in series [1] (setting [17]), the concentration at 0.5 h turned out to be 44.9 ng/g. For the same compound, in series [1] (setting [9]), the concentration at 1 h was 90.8 ng/g. The concentration at 2 h in series [1] (setting [10]) came out at 57.4 ng/g. In addition, the concentration at 4 h in series [1] (setting [11]) is 65.4 ng/g. In addition, the “number of partial responses in the mice” value in series [3] (setting [18]) is given as 0; in series [3] (setting [19]), 1.

`Cc1cc(Nc2ncnc3ccc(NC4=NC(C)(C)CO4)cc23)ccc1Oc1ccn2ncnc2c1` [REF]: the “Hygroscopicity (% wt change at 80% RH)” value in series [5] is given as less than 1% wt change at 80% RH.
